# In PMC6211316, “Synthesis and biological evaluation of 3-arylcoumarin derivatives as potential anti-diabetic agents” (Journal of Enzyme Inhibition and Medicinal Chemistry, 2018):
# Like-named read-outs stand apart in the source and are kept apart here.
# What was measured:
# [1] = DPPH free radical scavenging; settings: mean ± SD (n = 3)
# Method: The effect of target compounds and vitamin C to scavenge the DPPH free radical was evaluated with the method described by Villano et al.[43] with slight modifications.
# Two millilitres of different concentrations of the sample solution was added to 2.0 ml of DPPH solution (0.04 mg/mL), shaken and allowed to react at room temperature for 30 min. The absorbance value was measured at 517 nm with an ultraviolet-visible spectrophotometer. The blank reference cuvette contained absolute ethanol. All measurements were performed in triplicate. IC50 values were calculated. The percentage of DPPH radical scavenging rate of the target compound is calculated as follows: DPPH free radical scavenging effect (%)=[A0−(A1−A2)]/A0×100% where A0 is the absorbance of 2.0 ml DPPH solution +2.0 ml absolute ethanol; A1 is the absorbance of 2.0 ml DPPH solution +2.0 ml 3-arylcoumarins solution or standard; A2 is the absorbance of 2.0 ml 3-arylcoumarins solution or standard +2.0 ml absolute ethanol.
# [2] = hydroxyl radical scavenging; settings: mean ± SD (n = 3), read-out: OH IC50 Value
# Method: The ability of the target compounds and vitamin C to scavenge the hydroxyl radical was evaluated with method described by Ismaili et al.[29] with slight modifications. In test tube, 1.0 ml H2O2 solution (0.03%), 1.0 ml FeSO4 solution (2 mmol.L^−1), 1.0 ml salicylic acid solution (10 mmol.L^−1) and 1.0 ml of 3-arylcoumarins and standard water solution with different concentration (0.4–2.0 mg/mL) were mixed. Finally, 1.0 ml H2O2 solution (0.03%) was added to this mixture to start the reaction. Solutions were kept at 37 °C. After 30 min, the absorbance was measured at 510 nm against the reagent blank, where the distilled water was substituted for the H2O2 solution. The percentage of OH scavenging by target compounds and vitamin C was calculated the following equation: OH scavenging effect (%)=[A0−(A1−A2)]/A0×100% where A0 is the absorbance of 1.0 ml distilled water +1.0 ml H2O2 + 1.0 ml FeSO4 + 1.0 ml salicylic acid +1.0 ml H2O2; A1 is the absorbance of 1.0 ml 3-arylcoumarins or standard +1.0 ml H2O2 + 1.0 ml FeSO4 + 1.0 ml salicylic acid +1.0 ml H2O2; A2 is the absorbance of 1.0 ml 3-arylcoumarins or standard +1.0 ml H2O2 + 1.0 ml FeSO4 + 1.0 ml absolute absolute ethanol +1.0 ml H2O2.
# α-Glucosidase = biological target: T1, α-Glucosidase (Saccharomyces cerevisiae, UniProt P53341); assay: biochemical; type: biochemical
# T1 construct: purchased Sigma Aldrich G0660-750UN
# Method: α-Glucosidase (G0660-750UN, Sigma Aldrich) and 4-Nitrophenyl α-D-glucopyranoside (PNPG, Macklin) were dissolved in phosphate buffer (pH 6.8, 100 mM), and the test compounds were dissolved in DMSO solution. The experiment was divided into blank group, control group, sample blank group, and sample group. The reagents were loaded in 96-well plates at the dose of the table (Table 8). The solution was bathed in 37 °C water for 10 min, and then enzyme solution was added. After reaction at 37 °C for 20 min, 70 μL Na2CO3 solution ([…]) was added to stop the reaction. All experiments were run in triplicate. […] Since PNPG can produce glucose and p-Nitrophenol (PNP) under the action of α-glucosidase, PNP has the greatest absorption at 405 nm. The absorbance was determined by the microplate reader, and the inhibition rate of α-glucosidase and the IC50 value of each sample were calculated according to the formula. Inhibition rate %={[(AC−AB)−(AS−ASB)]/(AC−AB)}×100% where AC is the absorbance of control group; AB is the absorbance of blank group; AS is the absorbance of sample group; ASB is the absorbance of sample blank group.
# AGEs formation = assay: In vitro inhibitory activity of AGEs formation (bovine serum albumin/glucose); type: biochemical; settings: mean ± SD (n = 3)
# Method: To prepare the AGEs reaction solution, 10 mg/mL of bovine serum albumin in 50 mM PBS (pH 7.4) was added to 0.2 M glucose, and 0.02% sodium azide was added to prevent bacterial growth. The reaction mixture (3.0 ml) was then mixed with various concentrations (0.5–1000 μg/mL) of the target compounds (1.0 ml) dissolved in DMSO. After incubating at 37 °C for 14 d, the fluorescence intensity of AGE was determined by a fluorospectrophotometer (PE, USA) with excitation and emission wavelengths at 350 nm and 420 nm, respectively. All experiments were run in triplicate. Aminoguanidine hydrochloride was used as a reference compound. The inhibition rate of AGEs formation and the IC50 value of each sample were calculated according to the formula. Inhibition rate %={[(AC−AB)−(AS−ASB)]/(AC−AB)}×100% where AC is the absorbance of control group(1.0 ml glucose +1.0 ml bovine serum albumin +1.0 ml sodium azide +1.0 ml DMSO); AB is the absorbance of blank group(1.0 ml PBS +1.0 ml bovine serum albumin +1.0 ml sodium azide +1.0 ml DMSO); AS is the absorbance of sample group (1.0 ml glucose +1.0 ml bovine serum albumin +1.0 ml sodium azide +1.0 ml target compound solution or Aminoguanidine hydrochloride solution); ASB is the absorbance of sample blank group (1.0 ml PBS +1.0 ml bovine serum albumin +1.0 ml sodium azide +1.0 ml target compound solution or Aminoguanidine hydrochloride solution).
# STZ-diabetic mice = assay: Acute hypoglycemic assay in STZ-diabetic mice; type: in vivo; settings: for Blood glucose concentration / % Variation of glycemia: STZ-diabetics mice, 10 mg/kg of bw per os
# Method: Type II diabetes mellitus was induced in mice by a single intraperitoneal injection of freshly prepared STZ (Sigma Aldrich) dissolved in 0.1M citrate buffer, pH 4.5, in a volume of 110 mg/kg of bw. After 7 days of STZ administration, blood glucose levels of each mouse were determined. Mice with blood glucose levels higher than 11 mM were considered diabetic and were included in the study.
# (§1) STZ-induced diabetic mice and normal mice were placed in single cages with wire-net floors and deprived of food for 12 h before experimentation but allowed free access to tap water throughout. The compounds (at the doses of 10, 30, and 100 mg/kg of bw) were suspended in 0.05% Tween-80 in saline solution. Glibenclamide (10 mg/kg of bw) was suspended in the same vehicle. The target compounds were freshly prepared immediately before experimentation and administered by the intragastrical route at the doses of 10 ml/kg of bw. Control mice received only the vehicle (0.05% Tween-80 in saline solution) by the same route. Blood glucose levels were measured at 0, 1.5, 3, 5, 7, and 9 h after drugs administration.
# normal mice = assay: Acute hypoglycemic assay in normal mice; type: in vivo; settings: 10 mg/kg of bw per os
# Method: as §1
# [3] = mean ± SD (n = 3), read-out: α-Glucosidase inhibitory activity IC50 Value
# T1 sequence (P53341 whole entry): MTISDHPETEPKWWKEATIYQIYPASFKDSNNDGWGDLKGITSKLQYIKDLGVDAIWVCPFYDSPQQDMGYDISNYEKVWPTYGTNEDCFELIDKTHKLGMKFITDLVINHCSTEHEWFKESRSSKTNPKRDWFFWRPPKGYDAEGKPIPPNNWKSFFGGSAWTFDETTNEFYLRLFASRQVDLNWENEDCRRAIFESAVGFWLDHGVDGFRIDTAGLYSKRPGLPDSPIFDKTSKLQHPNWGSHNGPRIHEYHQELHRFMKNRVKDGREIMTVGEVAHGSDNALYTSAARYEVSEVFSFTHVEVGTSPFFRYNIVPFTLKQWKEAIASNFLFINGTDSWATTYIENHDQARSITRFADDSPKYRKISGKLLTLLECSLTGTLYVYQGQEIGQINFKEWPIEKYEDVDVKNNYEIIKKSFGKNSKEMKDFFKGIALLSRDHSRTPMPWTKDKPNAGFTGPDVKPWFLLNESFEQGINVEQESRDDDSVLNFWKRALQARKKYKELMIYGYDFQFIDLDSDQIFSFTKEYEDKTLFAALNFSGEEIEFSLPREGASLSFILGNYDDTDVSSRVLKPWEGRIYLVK
smiles,measurement,setting,value
"COc1ccc(-c2cc3c(O)cc(O)cc3oc2=O)cc1OC [Compound 42, 5,7-Dihydroxy-3-(3,4-dimethoxyphenyl)-coumarin]",IC50,[1],5.89 ± 0.06 µM
same,IC50,[2],> 1000 µM
same,IC50,α-Glucosidase,39.1 ± 0.76 µM
same,IC50,AGEs formation,18.3 ± 0.38 µM
same,melting point,,322 to 324.1 °C
"O=c1oc2cc(O)ccc2cc1-c1ccc(O)cc1 [Compound 12, 7-Hydroxy-3-(4-hydroxyphenyl)-coumarin]",IC50,[1],756 ± 8.31 µM
same,IC50,[2],> 1000 µM
same,IC50,α-Glucosidase; [3],19.9 ± 3.39 µM
"O=c1oc2cc(O)ccc2cc1-c1ccc(F)cc1 [Compound 18, 7-Hydroxy-3-(4-fluorophenyl)-coumarin]",IC50,[1],> 1000 µM
same,IC50,[2],> 1000 µM
same,IC50,α-Glucosidase; [3],86.9 ± 1.17 µM
same,IC50,AGEs formation,20.6 ± 0.39 µM
"O=c1oc2cc(O)cc(O)c2cc1-c1ccc(F)cc1 [Compound 31, 5,7-Dihydroxy-3-(4-fluorophenyl)-coumarin]",IC50,[1],595 ± 11.3 µM
same,IC50,[2],> 1000 µM
same,IC50,α-Glucosidase,19.1 ± 0.26 µM
same,melting point,,267 to 267.6 °C
"Cc1ccc(C)c(-c2cc3ccc(O)c(O)c3oc2=O)c1 [Compound 33, 7,8-Dihydroxy-3-(2,5-dimethylphenyl)-coumarin]",IC50,[1],2.98 ± 0.03 µM
same,IC50,[2],903 ± 41.9 µM
same,IC50,α-Glucosidase,> 1000 µM
same,melting point,,190.3 to 190.5 °C
"O=c1oc2c(O)cccc2cc1-c1ccc(O)cc1 [Compound 14, 8-Hydroxy-3-(4-hydroxyphenyl)-coumarin]",IC50,[1],167 ± 2.01 µM
same,IC50,[2],> 1000 µM
same,IC50,α-Glucosidase,213 ± 40.3 µM
same,IC50,AGEs formation,45.2 ± 5.28 µM
"O=c1oc2c(O)cccc2cc1-c1ccc(Br)cc1 [Compound 45, 8-Hydroxy-3-(4-brominephenyl)-coumarin]",IC50,[1],488 ± 95 µM
same,IC50,[2],596 ± 28.8 µM
same,IC50,α-Glucosidase; [3],> 1000 µM
same,IC50,AGEs formation,> 1000 µM
"O=c1oc2c(O)c(O)ccc2cc1-c1ccc(Br)cc1 [Compound 47, 7,8-Dihydroxy-3-(4-brominephenyl)-coumarin]",IC50,[1],2.37 ± 0.06 µM
same,IC50,[2],688 ± 49.7 µM
same,IC50,α-Glucosidase; [3],35.7 ± 0.48 µM
same,IC50,AGEs formation,299 ± 40.1 µM
"O=c1oc2ccccc2cc1-c1ccc(Br)cc1 [Compound 40, 3-(4-brominephenyl)-coumarin]",IC50,[1],> 1000 µM
same,IC50,[2],> 1000 µM
same,IC50,α-Glucosidase; [3],> 1000 µM
same,IC50,AGEs formation,13 ± 0.4 µM
"O=c1oc2c(O)c(O)ccc2cc1-c1ccc(O)c(O)c1 [Compound 36, 7,8-Dihydroxy-3-(3,4-dihydroxyphenyl)-coumarin]",IC50,[1],1.33 ± 0.03 µM
same,IC50,[2],244 ± 11.8 µM
same,IC50,α-Glucosidase; [3],247 ± 36.2 µM
same,IC50,AGEs formation,14.2 ± 1.33 µM
"O=c1oc2cc(O)cc(O)c2cc1-c1ccc(Br)cc1 [Compound 46, 5,7-Dihydroxy-3-(4-brominephenyl)-coumarin]",IC50,[1],> 1000 µM
same,IC50,[2],> 1000 µM
same,IC50,α-Glucosidase; [3],> 1000 µM
same,IC50,AGEs formation,47.75 ± 0.15 µM
"COc1ccc(Cl)cc1C(=O)NCCc1ccc(S(=O)(=O)NC(=O)NC2CCCCC2)cc1 [Glibenclamide, reference compound]",Blood glucose concentration,STZ-diabetic mice; 0h,16.9 ± 4.3 mM
same,% Variation of glycemia,STZ-diabetic mice; 1.5h,(−55.28) %
same,Blood glucose concentration,STZ-diabetic mice; 1.5h,7.2 ± 4.0 mM
same,% Variation of glycemia,STZ-diabetic mice; 3h,(−57.14) %
same,Blood glucose concentration,STZ-diabetic mice; 3h,6.9 ± 1.6 mM
same,% Variation of glycemia,STZ-diabetic mice; 5h,(−55.90) %
same,Blood glucose concentration,STZ-diabetic mice; 5h,6.7 ± 2.5 mM
same,% Variation of glycemia,STZ-diabetic mice; 7h,(−59.63) %
same,Blood glucose concentration,STZ-diabetic mice; 7h,6.5 ± 2.2 mM
same,% Variation of glycemia,STZ-diabetic mice; 9h,(−70.81) %
same,Blood glucose concentration,STZ-diabetic mice; 9h,4.9 ± 2.5 mM
same,time of maximum hypoglycemic effect,"STZ-diabetic mice; STZ-induced diabetic mice, 10 mg/kg of bw",9 h
same,Blood glucose concentration,normal mice; 0h,9.8 ± 1.5 mM
same,% Variation of glycemia,normal mice; 1.5h,(−34.58) %
same,Blood glucose concentration,normal mice; 1.5h,6.4 ± 1.4 mM
same,% Variation of glycemia,normal mice; 3h,(−41.36) %
same,Blood glucose concentration,normal mice; 3h,5.8 ± 0.8 mM
same,% Variation of glycemia,normal mice; 5h,(−49.15) %
same,Blood glucose concentration,normal mice; 5h,5.0 ± 1.4 mM
same,% Variation of glycemia,normal mice; 7h,(−56.61) %
same,Blood glucose concentration,normal mice; 7h,4.3 ± 0.6 mM
same,% Variation of glycemia,normal mice; 9h,(−58.31) %
same,Blood glucose concentration,normal mice; 9h,4.1 ± 0.7 mM
"O=c1oc2cc(O)ccc2cc1-c1ccc(Br)cc1 [Compound 44, 7-Hydroxy-3-(4-brominephenyl)-coumarin]",IC50,[1],> 1000 µM
same,IC50,[2],> 1000 µM
same,IC50,α-Glucosidase; [3],> 1000 µM
same,IC50,AGEs formation,7.51 ± 0.38 µM
"Cc1ccc(-c2cc3ccc(O)cc3oc2=O)cc1 [Compound 9, 7-Hydroxy-3-(4-methylphenyl)-coumarin]",IC50,[1],60.2 ± 1.27 µM
same,IC50,[2],> 1000 µM
same,IC50,α-Glucosidase; [3],118 ± 41.5 µM
same,IC50,AGEs formation,> 1000 µM
"COc1ccc(-c2cc3ccc(O)cc3oc2=O)cc1 [Compound 24, 7-Hydroxy-3-(4-methoxyphenyl)-coumarin]",IC50,[1],53.9 ± 1.83 µM
same,IC50,[2],> 1000 µM
same,IC50,α-Glucosidase; [3],27.42 ± 0.11 µM
same,IC50,AGEs formation,> 1000 µM
"COc1ccc(-c2cc3cccc(O)c3oc2=O)cc1 [Compound 22, 8-Hydroxy-3-(4-methoxyphenyl)-coumarin]",IC50,[1],15.63 ± 0.11 µM
same,IC50,[2],> 1000 µM
same,IC50,α-Glucosidase,> 1000 µM
same,IC50,AGEs formation,23.1 ± 0.82 µM
"COc1ccc(-c2cc3ccc(O)cc3oc2=O)cc1OC [Compound 37, 7-Hydroxy-3-(3,4-dimethoxyphenyl)-coumarin]",IC50,[1],173 ± 42.6 µM
same,IC50,[2],> 1000 µM
same,IC50,α-Glucosidase; [3],> 1000 µM
"O=c1oc2ccccc2cc1-c1ccc(O)cc1 [Compound 6, 3-(4-Hydroxyphenyl)-coumarin]",IC50,[1],> 1000 µM
same,IC50,[2],> 1000 µM
same,IC50,α-Glucosidase; [3],60.88 ± 0.55 µM
same,IC50,AGEs formation,> 1000 µM
